Experimental data from patent publication US10457710B2, “Antimicrobial peptides, their variants and uses” (priority 2015, dated 2019).
Where a SMILES comes first, the peptide text is derived from it. [ ]: non-standard residue; d: D form.

Tests used:
Type in all cases: cell-based
[1] = tested on: clinical strains of S. pneumoniae; assay: MIC, microdilution, clinical strains; details: 0.02% BSA, 0.2% acetic acid
How it was run: (§1)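 MIC = lowest peptide concentration without visual growth after 20–24 h at 37° C. Range 0.125–128 μg/ml, inoculum 5.0×10^5 cfu/ml, microdilution format. Antifungal tests used potato dextrose broth; bacterial tests used MH broth.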

[2] = tested on: clinical strains of E. coli; assay: MIC, microdilution, clinical strains; details: microdilution, Muller Hinton broth-cation adjusted, 0.02% BSA, 0.2% acetic acid
How it was run: as §1

[3] = tested on: clinical strains of Serratia marcescens; assay: MIC, microdilution, clinical strains; details: 0.02% BSA, 0.2% acetic acid
How it was run: as §1

[4] = tested on: clinical strains of P. aeruginosa; assay: MIC, microdilution, clinical strains; details: 0.02% BSA, 0.2% acetic acid
How it was run: as §1

[5] = tested on: clinical strains of Proteus mirabilis; assay: MIC, microdilution, clinical strains; details: 0.02% BSA, 0.2% acetic acid
How it was run: as §1

[6] = tested on: clinical strains of E. cloacae; assay: MIC, microdilution, clinical strains; details: 0.02% BSA, 0.2% acetic acid
How it was run: as §1

[7] = tested on: clinical strains of K. pneumoniae; assay: MIC, microdilution, clinical strains; details: 0.02% BSA, 0.2% acetic acid
How it was run: as §1

[8] = tested on: clinical strains of S. aureus; assay: MIC, microdilution, clinical strains; details: 0.02% BSA, 0.2% acetic acid
How it was run: as §1

C. quillermondiae = assay: MIC, clinical yeast strains; details: clinical yeast strain 1; D-form peptide; concentrations tested 0.125 to 128 μg/ml
How it was run: (§2)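 Visual growth inhibition defined the MIC in a microdilution assay where fungal strains were cultured in potato dextrose broth instead of MH broth. Cell density was set to 5.0×10^5 cfu/ml, and incubation lasted 20–24 h at 37° C across a 0.125–128 μg/ml series.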

[9] = tested on: clinical strains of A. johnsonii; assay: MIC, microdilution, clinical strains; set-up: unit: μg/ml; details: Acinetobacter johnsonii strain 1, Muller Hinton broth-cation adjusted, 0.02% BSA, 0.2% acetic acid
How it was run: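 For A. johnsonii, Mueller Hinton broth; for the clinical yeasts, Potato dextrose broth. In both, 5.0×10^5 cfu/ml was exposed to peptide over 0.125–128 μg/ml for 20–24 h at 37 °C, and MIC was read as the lowest concentration showing no visual growth.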

[10] = tested on: clinical strains of Acinetobacter baumannii; assay: MIC, microdilution, clinical strains; set-up: unit: μg/ml; details: 0.02% BSA, 0.2% acetic acid
How it was run: as §1

C. glabrata = assay: MIC, clinical yeast strains; details: D-form peptide, concentrations tested 0.125 to 128 μg/ml
How it was run: as §2

Candida albicans = assay: MIC, clinical yeast strains; details: D-form peptide, concentrations tested 0.125 to 128 μg/ml
How it was run: as §2

C. parapsilosis = assay: MIC, clinical yeast strains; details: D-form peptide, concentrations tested 0.125 to 128 μg/ml
How it was run: as §2

SMILES: CC[C@@H](C)[C@@H](NC(=O)[C@@H](CCSC)NC(=O)[C@@H](C)NC(=O)[C@@H](CCCNC(=N)N)NC(=O)[C@@H](Cc1c[nH]c2ccccc12)NC(=O)[C@@H](CCCCN)NC(=O)[C@H](N)CCCNC(=N)N)C(=O)N[C@H](CCCNC(=N)N)C(=O)N[C@H](CC(C)C)C(=O)N[C@H](Cc1c[nH]cn1)C(=O)N[C@H](C)C(=O)N[C@H](CCCCN)C(=O)N[C@H](Cc1c[nH]c2ccccc12)C(=O)N[C@H](CC(C)C)C(=O)N[C@H](CCCNC(=N)N)C(=O)N[C@H](CCCCN)C(=O)O [Chain105D] (H-[dR][dK][dW][dR][dA][dM][dI][dR][dL][dH][dA][dK][dW][dL][dR][dK]-OH)
- Minimum inhibitory concentration ([1]; Streptococcus pneumoniae strain 1, Muller Hinton broth-cation adjusted): 4
- Minimum inhibitory concentration ([1]; Streptococcus pneumoniae strain 2, Muller Hinton broth-cation adjusted): 2
- Minimum inhibitory concentration ([1]; Streptococcus pneumoniae strain 3, Muller Hinton broth-cation adjusted): 2
- Minimum inhibitory concentration ([1]; Streptococcus pneumoniae strain 4, Muller Hinton broth-cation adjusted): 4
- Minimum inhibitory concentration ([1]; Streptococcus pneumoniae strain 5, Muller Hinton broth-cation adjusted): 2
- Minimum inhibitory concentration ([2]; Escherichia coli strain 1): 1
- Minimum inhibitory concentration ([2]; Escherichia coli strain 2): 4
- Minimum inhibitory concentration ([2]; Escherichia coli strain 3): 1
- Minimum inhibitory concentration ([2]; Escherichia coli strain 4): 1
- Minimum inhibitory concentration ([2]; Escherichia coli strain 5): 2
- Minimum inhibitory concentration ([3]; Serratia marcescens strain 1, Muller Hinton broth-cation adjusted): 128
- Minimum inhibitory concentration ([3]; Serratia marcescens strain 2, Muller Hinton broth-cation adjusted): 128
- Minimum inhibitory concentration ([3]; Serratia marcescens strain 3, Muller Hinton broth-cation adjusted): 128
- Minimum inhibitory concentration ([3]; Serratia marcescens strain 4, Muller Hinton broth-cation adjusted): 128
- Minimum inhibitory concentration ([3]; Serratia marcescens strain 5, Muller Hinton broth-cation adjusted): 128
- Minimum inhibitory concentration ([4]; Pseudomonas aeruginosa strain 1, Muller Hinton broth-cation adjusted): 4
- Minimum inhibitory concentration ([4]; Pseudomonas aeruginosa strain 2, Muller Hinton broth-cation adjusted): 4
- Minimum inhibitory concentration ([4]; Pseudomonas aeruginosa strain 3, Muller Hinton broth-cation adjusted): 4
- Minimum inhibitory concentration ([4]; Pseudomonas aeruginosa strain 4, Muller Hinton broth-cation adjusted): 4
- Minimum inhibitory concentration ([4]; Pseudomonas aeruginosa strain 5, Muller Hinton broth-cation adjusted): 4
- Minimum inhibitory concentration ([5]; Proteus mirabilis strain 1, Muller Hinton broth-cation adjusted): >128
- Minimum inhibitory concentration ([5]; Proteus mirabilis strain 2, Muller Hinton broth-cation adjusted): 32
- Minimum inhibitory concentration ([5]; Proteus mirabilis strain 3, Muller Hinton broth-cation adjusted): 64
- Minimum inhibitory concentration ([5]; Proteus mirabilis strain 4, Muller Hinton broth-cation adjusted): >128
- Minimum inhibitory concentration ([5]; Proteus mirabilis strain 5, Muller Hinton broth-cation adjusted): >128
- Minimum inhibitory concentration ([6]; Enterobacter cloacae strain 1, Muller Hinton broth-cation adjusted): 2
- Minimum inhibitory concentration ([6]; Enterobacter cloacae strain 2, Muller Hinton broth-cation adjusted): 2
- Minimum inhibitory concentration ([6]; Enterobacter cloacae strain 3, Muller Hinton broth-cation adjusted): 2
- Minimum inhibitory concentration ([6]; Enterobacter cloacae strain 4, Muller Hinton broth-cation adjusted): 2
- Minimum inhibitory concentration ([6]; Enterobacter cloacae strain 5, Muller Hinton broth-cation adjusted): 1
- Minimum inhibitory concentration ([7]; Klebsiella pneumoniae strain 1, Muller Hinton broth-cation adjusted): 4
- Minimum inhibitory concentration ([7]; Klebsiella pneumoniae strain 2, Muller Hinton broth-cation adjusted): 2
- Minimum inhibitory concentration ([7]; Klebsiella pneumoniae strain 3, Muller Hinton broth-cation adjusted): 4
- Minimum inhibitory concentration ([7]; Klebsiella pneumoniae strain 4, Muller Hinton broth-cation adjusted): 4
- Minimum inhibitory concentration ([7]; Klebsiella pneumoniae strain 5, Muller Hinton broth-cation adjusted): 2
- Minimum inhibitory concentration ([8]; Staphylococcus aureus strain 1, Muller Hinton broth-cation adjusted): 2
- Minimum inhibitory concentration ([8]; Staphylococcus aureus strain 2, Muller Hinton broth-cation adjusted): 2
- Minimum inhibitory concentration ([8]; Staphylococcus aureus strain 3, Muller Hinton broth-cation adjusted): 2
- Minimum inhibitory concentration ([8]; Staphylococcus aureus strain 4, Muller Hinton broth-cation adjusted): 2
- Minimum inhibitory concentration ([8]; Staphylococcus aureus strain 5, Muller Hinton broth-cation adjusted): 2
- Minimum inhibitory concentration, C. quillermondiae strain 1 (C. quillermondiae): 8
- Minimum inhibitory concentration [9]: 4
- Minimum inhibitory concentration ([10]; Acinetobacter baumannii strain 1, Muller Hinton broth-cation adjusted): 4
- Minimum inhibitory concentration ([10]; Acinetobacter baumannii strain 2, Muller Hinton broth-cation adjusted): 4
- Minimum inhibitory concentration ([10]; Acinetobacter baumannii strain 3, Muller Hinton broth-cation adjusted): 4
- Minimum inhibitory concentration ([10]; Acinetobacter baumannii strain 4, Muller Hinton broth-cation adjusted): 2
- Minimum inhibitory concentration ([10]; Acinetobacter baumannii strain 5, Muller Hinton broth-cation adjusted): 4
- Minimum inhibitory concentration, C. glabrata strain 1 (C. glabrata; clinical yeast strain 1): 16
- Minimum inhibitory concentration, C. glabrata strain 2 (C. glabrata; clinical yeast strain 2): 16
- Minimum inhibitory concentration, C. glabrata strain 3 (C. glabrata; clinical yeast strain 3): 8
- Minimum inhibitory concentration, C. glabrata strain 4 (C. glabrata; clinical yeast strain 4): 32
- Minimum inhibitory concentration, Candida albicans strain 1 (Candida albicans; clinical yeast strain 1): 32
- Minimum inhibitory concentration, Candida albicans strain 2 (Candida albicans; clinical yeast strain 2): 16
- Minimum inhibitory concentration, Candida albicans strain 3 (Candida albicans; clinical yeast strain 3): 32
- Minimum inhibitory concentration, Candida albicans strain 4 (Candida albicans; clinical yeast strain 4): 32
- Minimum inhibitory concentration, Candida albicans strain 5 (Candida albicans; clinical yeast strain 5): 32
- Minimum inhibitory concentration, C. parapsilosis strain 1 (C. parapsilosis; clinical yeast strain 1): 8
- Minimum inhibitory concentration, C. parapsilosis strain 2 (C. parapsilosis; clinical yeast strain 2): 8
- Minimum inhibitory concentration, C. parapsilosis strain 3 (C. parapsilosis; clinical yeast strain 3): 8
- Minimum inhibitory concentration, C. parapsilosis strain 4 (C. parapsilosis; clinical yeast strain 4): 4
